Where a SMILES comes first, the peptide text is derived from it.
Target: T1, hTAS1R2/hTAS1R3 (Homo sapiens, UniProt Q7RTX0+Q8TE23)
T1 construct: expressed in transfected cells; host or cells: HEK293T cells stably expressing G16Gust44
T1 sequence (Q8TE23 20-839): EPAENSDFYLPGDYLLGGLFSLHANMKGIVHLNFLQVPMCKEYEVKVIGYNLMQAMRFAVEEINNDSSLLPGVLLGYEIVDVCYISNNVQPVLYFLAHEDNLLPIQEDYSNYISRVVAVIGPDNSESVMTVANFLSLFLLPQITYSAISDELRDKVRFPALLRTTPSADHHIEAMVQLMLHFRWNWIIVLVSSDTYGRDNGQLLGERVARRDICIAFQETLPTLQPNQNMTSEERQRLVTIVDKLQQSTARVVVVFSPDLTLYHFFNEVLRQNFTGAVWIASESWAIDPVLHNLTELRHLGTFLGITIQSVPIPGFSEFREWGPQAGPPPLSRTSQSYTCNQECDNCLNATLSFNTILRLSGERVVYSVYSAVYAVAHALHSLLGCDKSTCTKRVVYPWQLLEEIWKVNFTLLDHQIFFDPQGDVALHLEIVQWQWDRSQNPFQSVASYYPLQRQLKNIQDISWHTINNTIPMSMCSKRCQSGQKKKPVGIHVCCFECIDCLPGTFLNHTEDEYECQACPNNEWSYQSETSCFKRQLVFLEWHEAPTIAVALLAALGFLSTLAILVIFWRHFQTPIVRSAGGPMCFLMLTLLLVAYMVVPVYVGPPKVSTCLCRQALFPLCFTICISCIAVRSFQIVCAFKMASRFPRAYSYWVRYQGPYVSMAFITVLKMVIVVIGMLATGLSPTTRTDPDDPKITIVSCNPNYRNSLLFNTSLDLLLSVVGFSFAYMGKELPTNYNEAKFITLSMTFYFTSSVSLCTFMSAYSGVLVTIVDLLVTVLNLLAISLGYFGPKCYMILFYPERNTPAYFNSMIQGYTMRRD
T1 sequence (Q7RTX0 21-852): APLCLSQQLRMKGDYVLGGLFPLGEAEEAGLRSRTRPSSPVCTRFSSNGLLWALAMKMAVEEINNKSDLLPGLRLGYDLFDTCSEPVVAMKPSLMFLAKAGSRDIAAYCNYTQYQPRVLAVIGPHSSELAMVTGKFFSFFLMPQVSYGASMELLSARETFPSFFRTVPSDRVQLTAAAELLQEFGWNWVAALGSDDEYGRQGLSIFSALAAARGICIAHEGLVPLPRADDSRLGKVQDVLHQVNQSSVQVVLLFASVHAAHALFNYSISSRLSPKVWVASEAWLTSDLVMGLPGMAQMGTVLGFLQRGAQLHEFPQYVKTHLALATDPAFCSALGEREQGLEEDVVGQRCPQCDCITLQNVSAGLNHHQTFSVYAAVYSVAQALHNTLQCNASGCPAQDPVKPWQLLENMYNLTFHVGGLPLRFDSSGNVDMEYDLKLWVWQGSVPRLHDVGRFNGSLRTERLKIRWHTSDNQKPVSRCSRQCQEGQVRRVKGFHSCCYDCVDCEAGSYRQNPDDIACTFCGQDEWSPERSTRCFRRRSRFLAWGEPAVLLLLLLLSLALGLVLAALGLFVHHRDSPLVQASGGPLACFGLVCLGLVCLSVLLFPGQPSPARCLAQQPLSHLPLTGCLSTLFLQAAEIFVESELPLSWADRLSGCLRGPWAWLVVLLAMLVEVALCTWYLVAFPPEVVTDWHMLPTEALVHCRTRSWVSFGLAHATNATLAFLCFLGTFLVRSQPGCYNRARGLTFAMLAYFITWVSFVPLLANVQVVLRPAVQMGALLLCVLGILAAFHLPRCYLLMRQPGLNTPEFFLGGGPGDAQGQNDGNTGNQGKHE
Experiment: Calcium response (FLIPR) of HEK293T-G16Gust44 cells, wild type receptor
Type: cell-based
Settings: for EC50 / Emax: wt receptor; for EC50: average ± SD, at least three experiments; for Emax: read-out: maximal signal (% of wt)
Text: In order to elucidate the putative binding site for NHDC, we cotransfected mixtures of plasmid DNAs for the rat and human TAS1R2 and TAS1R3 receptor subunits in HEK293T cells stably expressing the chimeric G-protein G16Gust44 and measured cellular calcium responses by fluorometry following bath application of various sweet tasting compounds. […].
The cDNAs for TAS1Rs tagged at the C-terminus with the herpes simplex virus glycoprotein D (HSV) were transiently transfected into HEK293T cells stably expressing the chimeric G-protein subunit G16Gust44 [44] using Lipofectamine 2000 (Invitrogen, Carlsbad, CA) according to the manufacturer's protocol. 3–4 hours after transfection, DMEM was replaced by low-glucose DMEM supplemented with GlutaMAX and 10% dialyzed FBS (Invitrogen, Carlsbad, CA). 24 h post transfection, cells were loaded for 1 h with the calcium sensitive dye Fluo4-AM (2 μg/ml in DMEM, Molecular Probes, Carlsbad, CA). Cells were washed 3x in solution C1 (130 mM NaCl, 5 mM KCl, 10 mM Hepes, 2 mM CaCl2, and 5 mM Glucose, pH 7,4). We monitored calcium mobilization following receptor stimulation with sweet tastants by an automated fluorometric imaging plate reader (FLIPR, Molecular Devices, Sunnyvale, CA). Compounds used as stimuli (Sigma-Aldrich, St. Louis, MO; Merck, Whitehouse Station, NJ) were dissolved in C1 solution. All data were collected from at least three independent experiments carried out in duplicate. The obtained calcium signals were corrected for the response of mock transfected cells and normalized to the fluorescence of cells prior to the application of the stimulus using ΔF/F = (F-F0)/F0. […]

| EC50 [µM] | Emax [%] | receptor activation (human sweet taste receptor) | Structure (SMILES) |
| --- | --- | --- | --- |
| 1300 ± 100 | 100 |  | COC(=O)[C@H](Cc1ccccc1)NC(=O)[C@@H](N)CC(=O)O [aspartame] (HELM PEPTIDE1{D.F.[CO[*:1]]}$$$$V2.0) |
| 100 ± 60 | 100 | activates | COc1ccc(CCC(=O)c2c(O)cc(O[C@@H]3O[C@H](CO)[C@@H](O)[C@H](O)[C@H]3O[C@@H]3O[C@@H](C)[C@H](O)[C@@H](O)[C@H]3O)cc2O)cc1O [NHDC, neohesperidin dihydrochalcone] |
| 1900 ± 100 |  |  | O=S(=O)(O)NC1CCCCC1 [cyclamate] |
